According to patent US9609868B2, “Alkoximino-substituted anthranilic acid diamides as pesticides” (BAYER CROPSCIENCE AKTIENGESELLSCHAFT, priority 2013, dated 2017):
Read-outs that look alike come from different tables or passages of the source. One block for each molecule: values may come before it.

Assays:
[1] = system: Spodoptera frugiperda; experiment: Spodoptera frugiperda - spray test (SPODFR); assay type: in vivo; conditions: application rate 100 g/ha, maize leaf disks
Method: Spodoptera frugiperda—Spray Test (SPODFR)
(§1) Solvent: 78.0 parts by weight of acetone • • 1.5 parts by weight of dimethylformamide
(§2) Emulsifier: 0.5 parts by weight of alkylaryl polyglycol ether
(§3) To produce a suitable active compound preparation, 1 part by weight of active compound is mixed with the stated amounts of solvent and emulsifier, and the concentrate is diluted with emulsifier-containing water to the desired concentration.
Leaf disks of maize (Zea mays) are sprayed with an active compound preparation of the desired concentration and, after drying, populated with caterpillars of the armyworm (Spodoptera frugiperda).
After the desired period of time, the efficacy in % is determined. 100% means that all the caterpillars have been killed; 0% means that no caterpillars have been killed.

[2] = log P by HPLC on reversed-phase column (C18), EEC directive 79/831 Annex V.A8; assay type: physicochemical; conditions: for log p: data refer to the E isomer
Method: The log P values reported in the tables and Preparation Examples above were determined in accordance with EEC directive 79/831 Annex V.A8 by HPLC (High Performance Liquid Chromatography) using a reversed-phase column (C18). Temperature 43° C. The calibration is effected with unbranched alkan-2-ones (having 3 to 16 carbon atoms), for which the log P values are known.

[3] = system: Myzus persicae; experiment: Myzus persicae - spray test (MYZUPE); assay type: in vivo; conditions: application rate 100 g/ha, Chinese cabbage leaf disks
Method: Myzus persicae—Spray Test (MYZUPE)
Solvent: 78 parts by weight of acetone • • 1.5 parts by weight of dimethylformamide
as §2, §3
Disks of Chinese cabbage leaves (Brassica pekinensis) infested by all stages of the green peach aphid (Myzus persicae) are sprayed with an active compound preparation of the desired concentration.
After the desired period of time, the efficacy in % is determined. 100% means that all the aphids have been killed; 0% means that none of the aphids have been killed.

[4] = system: Phaedon cochleariae; experiment: Phaedon cochleariae - spray test (PHAECO); assay type: in vivo; conditions: application rate 100 g/ha, Chinese cabbage leaf disks
Method: Phaedon cochleariae—Spray Test (PHAECO)
as §1, §2, §3
After the desired period of time, the efficacy in % is determined. 100% means that all the beetle larvae have been killed; 0% means that no beetle larvae have been killed.

[5] = Table A, HPLC reversed-phase C18, 43° C.
[6] = Table B, HPLC reversed-phase C18, 43° C.
[7] = reversed-phase HPLC column (C18), HPLC-MS data in the preparation text, HPLC reversed-phase C18, 43° C., read-out: log P
[8] = Table C, HPLC reversed-phase C18, 43° C.

SMILES: CON=Cc1cc(C)c(NC(=O)c2cc(OCC(F)F)nn2-c2ncccc2Cl)c(C(=O)NNC(=O)OC)c1 (mixture of isomers) [A-37]
- efficacy (caterpillars killed) [1]: 100%
- log p [2, 5]: 2.37
- efficacy (aphids killed) [3]: 100%

SMILES: CON=Cc1cc(C)c(NC(=O)c2cc(OC)nn2-c2ncccc2Cl)c(C(=O)NNC(=O)OC)c1 (mixture of isomers) [A-38]
- efficacy (caterpillars killed) [1]: 100%
- efficacy (beetle larvae killed) [4]: 100%
- log p [2, 5]: 2.00

SMILES: CON=Cc1cc(C)c(NC(=O)c2cc(OC)nn2-c2ncccc2Cl)c(C(=O)NNC(=O)OC)c1 (mixture of isomers) [A-40]
- efficacy (caterpillars killed) [1]: 100%
- log p [2, 5]: 2.45
- efficacy (aphids killed) [3]: 90%

SMILES: CON=Cc1cc(C)c(NC(=O)c2cc(C(F)(F)F)nn2-c2ncccc2Cl)c(C(=O)NC2CS(=O)(=O)C2)c1 (mixture of isomers) [B-04]
- efficacy (caterpillars killed) [1]: 100%
- log p [2, 6]: 2.78
- efficacy (aphids killed) [3]: 90%

SMILES: CON=Cc1cc(C)c(NC(=O)c2cc(OC(C)C)nn2-c2ncccc2Cl)c(C(=O)NC2COC2)c1 (mixture of isomers) [B-07]
- efficacy (caterpillars killed) [1]: 100%
- log p [2, 6]: 2.57

SMILES: CON=Cc1cc(C)c(NC(=O)c2cc(OCC(F)F)nn2-c2ncccc2Cl)c(C(=O)NC2COC2)c1 (mixture of isomers) [B-09]
- efficacy (caterpillars killed) [1]: 100%
- log p [2, 6]: 2.44
- efficacy (aphids killed) [3]: 100%

SMILES: CON=Cc1cc(C)c(NC(=O)c2cc(CF)nn2-c2ncccc2Cl)c(C(=O)NC2COC2)c1 (mixture of isomers) [B-12]
- efficacy (beetle larvae killed) [4]: 100%
- log p [2, 6]: 2.04

- chromatographic logP [2, 7]: 1.59
SMILES: O=C(O)c1cc(OCC(F)F)nn1-c1ncccc1Cl [1-(3-Chloropyridin-2-yl)-3-(2,2-difluoroethoxy)-1H-pyrazole-5-carboxylic acid]

SMILES: CO/N=C/c1cc(C)c(NC(=O)c2cc(OC(F)F)nn2-c2ncccc2Cl)c(C(=O)NN)c1 [1-(3-Chloropyridin-2-yl)-3-(difluoromethoxy)-N-{2-(hydrazinocarbonyl)-4-[(E)-(methoxyimino)methyl]-6-methylphenyl}-1H-pyrazole-5-carboxamide]
- chromatographic logP ([2]; log P): 2.12

- chromatographic logP [2, 7]: 1.03
SMILES: O=C(O)c1cc(CF)nn1-c1ncccc1Cl [1-(3-Chloropyridin-2-yl)-3-(fluoromethyl)-1H-pyrazole-5-carboxylic acid]

- chromatographic logP [2, 7]: 1.47
SMILES: CCOc1cc(C(=O)O)n(-c2ncccc2Cl)n1 [1-(3-chloropyridin-2-yl)-3-ethoxy-1H-pyrazole-5-carboxylic acid]

- chromatographic logP [2, 7]: 1.76
SMILES: CC(C)Oc1cc(C(=O)O)n(-c2ncccc2Cl)n1 [1-(3-chloropyridin-2-yl)-3-isopropoxy-1H-pyrazole-5-carboxylic acid]

- chromatographic logP [2, 7]: 1.59
SMILES: O=C(O)c1cc(OCc2ccc(C(F)(F)F)nc2)nn1-c1ncccc1Cl [1-(3-chloropyridin-2-yl)-3-{[6-(trifluoromethyl)pyridin-3-yl]methoxy}-1H-pyrazole-5-carboxylic acid]

- chromatographic logP [2, 7]: 3.92
SMILES: CON=Cc1cc(C)c2nc(-c3cc(OCC(F)F)nn3-c3ncccc3Cl)oc(=O)c2c1 [2-[1-(3-Chloropyridin-2-yl)-3-(2,2-difluoroethoxy)-1H-pyrazol-5-yl]-8-methyl-4-oxo-4H-3,1-benzoxazine-6-carbaldehyde O-methyl oxime]

- chromatographic logP [2, 7]: 3.93
SMILES: CON=Cc1cc(C)c2nc(-c3cc(OC(F)F)nn3-c3ncccc3Cl)oc(=O)c2c1 [2-[1-(3-Chloropyridin-2-yl)-3-(difluoromethoxy)-1H-pyrazol-5-yl]-8-methyl-4-oxo-4H-3,1-benzoxazine-6-carbaldehyde O-methyl oxime]

SMILES: CON=Cc1cc(C)c(NC(=O)c2cc(Br)nn2-c2ncccc2Cl)c(C(=O)N(C)NC(=O)Oc2ccccc2)c1 [A-05]
- efficacy (caterpillars killed) [1]: 100%
- log p [2, 5]: 3.46
- efficacy (aphids killed) [3]: 100%

SMILES: C=CCOC(=O)NN(C)C(=O)c1cc(C=NOC)cc(C)c1NC(=O)c1cc(Br)nn1-c1ncccc1Cl [A-07]
- efficacy (caterpillars killed) [1]: 100%
- log p [2, 5]: 3.12

SMILES: CON=Cc1cc(C)c(NC(=O)c2cc(Br)nn2-c2ncccc2Cl)c(C(=O)NNS(C)(=O)=O)c1 [A-09]
- efficacy (caterpillars killed) [1]: 100%
- log p [2, 5]: 2.30
- efficacy (aphids killed) [3]: 90%

SMILES: CCOC(=O)NN(C)C(=O)c1cc(C=NOC)cc(C)c1NC(=O)c1cc(Br)nn1-c1ncccc1Cl [A-10]
- efficacy (caterpillars killed) [1]: 100%
- log p [2, 5]: 2.97
- efficacy (aphids killed) [3]: 90%

SMILES: CON=Cc1cc(C)c(NC(=O)c2cc(Br)nn2-c2ncccc2Cl)c(C(=O)N(NC(C)=O)C(C)=O)c1 [A-11]
- efficacy (caterpillars killed) [1]: 100%
- log p [2, 5]: 2.67
- efficacy (aphids killed) [3]: 100%

SMILES: CON=Cc1cc(C)c(NC(=O)c2cc(Br)nn2-c2ncccc2Cl)c(C(=O)N(NS(C)(=O)=O)S(C)(=O)=O)c1 [A-12]
- efficacy (caterpillars killed) [1]: 100%
- log p [2, 5]: 2.99

SMILES: COCCOC(=O)NN(C)C(=O)c1cc(C=NOC)cc(C)c1NC(=O)c1cc(Br)nn1-c1ncccc1Cl [A-13]
- efficacy (caterpillars killed) [1]: 100%
- log p [2, 5]: 2.72
- efficacy (aphids killed) [3]: 90%

SMILES: CON=Cc1cc(C)c(NC(=O)c2cc(Br)nn2-c2ncccc2Cl)c(C(=O)N(C)NC(C)=O)c1 [A-14]
- efficacy (caterpillars killed) [1]: 100%
- log p [2, 5]: 2.31
- efficacy (aphids killed) [3]: 90%

SMILES: CON=Cc1cc(C)c(NC(=O)c2cc(Br)nn2-c2ncccc2Cl)c(C(=O)NNC(=O)Oc2ccccc2)c1 [A-15]
- efficacy (caterpillars killed) [1]: 100%
- log p [2, 5]: 3.03
- efficacy (aphids killed) [3]: 90%

SMILES: CON=Cc1cc(C)c(NC(=O)c2cc(Br)nn2-c2ncccc2Cl)c(C(=O)N(C)NC(=O)OC(C)C)c1 [A-16]
- efficacy (caterpillars killed) [1]: 100%
- log p [2, 5]: 3.28

SMILES: CCOC(=O)NN(C)C(=O)c1cc(C=NOC)cc(C)c1NC(=O)c1cc(C(F)(F)F)nn1-c1ncccc1Cl [A-24]
- efficacy (caterpillars killed) [1]: 100%
- log p [2, 5]: 3.31

SMILES: COCCOC(=O)NN(C)C(=O)c1cc(C=NOC)cc(C)c1NC(=O)c1cc(C(F)(F)F)nn1-c1ncccc1Cl [A-27]
- efficacy (caterpillars killed) [1]: 100%
- log p [2, 5]: 3.05

SMILES: C=CCOC(=O)NN(C)C(=O)c1cc(C=NOC)cc(C)c1NC(=O)c1cc(C(F)(F)F)nn1-c1ncccc1Cl [A-28]
- efficacy (caterpillars killed) [1]: 100%
- log p [2, 5]: 3.41

SMILES: CON=Cc1cc(C)c(NC(=O)c2cc(C(F)(F)F)nn2-c2ncccc2Cl)c(C(=O)N(C)NC(C)=O)c1 [A-30]
- efficacy (caterpillars killed) [1]: 100%
- log p [2, 5]: 2.75

SMILES: CON=Cc1cc(C)c(NC(=O)c2cc(OCC(F)F)nn2-c2ncccc2Cl)c(C(=O)NC(C)C2CC2)c1 (stereo not shown) [C-18]
- efficacy (caterpillars killed) [1]: 100%
- log p [2, 8]: 3.39
- efficacy (aphids killed) [3]: 90%

SMILES: CON=Cc1cc(C)c(NC(=O)c2cc(OCC(F)F)nn2-c2ncccc2Cl)c(C(=O)N(C)C)c1 [C-38]
- efficacy (caterpillars killed) [1]: 100%
- log p [2, 8]: 2.61

SMILES: COCC(C)NC(=O)c1cc(C=NOC)cc(C)c1NC(=O)c1cc(OCC(F)F)nn1-c1ncccc1Cl (stereo not shown) [C-39]
- efficacy (caterpillars killed) [1]: 100%
- log p [2, 8]: 2.93
- efficacy (aphids killed) [3]: 100%

SMILES: CON=Cc1cc(C)c(NC(=O)c2cc(OC)nn2-c2ncccc2Cl)c(C(=O)N(C)C)c1 [C-40]
- log p [2, 8]: 2.16

SMILES: C#CCNC(=O)c1cc(C=NOC)cc(C)c1NC(=O)c1cc(OCC(F)F)nn1-c1ncccc1Cl [C-52]
- efficacy (caterpillars killed) [1]: 100%
- log p [2, 8]: 2.78
- efficacy (aphids killed) [3]: 90%

SMILES: COCC(C)NC(=O)c1cc(C=NOC)cc(C)c1NC(=O)c1cc(CF)nn1-c1ncccc1Cl (stereo not shown) [C-54]
- efficacy (caterpillars killed) [1]: 100%
- log p [2, 8]: 2.47
- efficacy (aphids killed) [3]: 90%

SMILES: CON=Cc1cc(C)c(NC(=O)c2cc(CF)nn2-c2ncccc2Cl)c(C(=O)N(C)C)c1 [C-55]
- efficacy (caterpillars killed) [1]: 100%
- log p [2, 8]: 2.19

SMILES: CON=Cc1cc(C)c(NC(=O)c2cc(C(F)F)nn2-c2ncccc2Cl)c(C(=O)N(C)C)c1 [C-61]
- efficacy (caterpillars killed) [1]: 100%
- log p [2, 8]: 2.47

- chromatographic logP [2, 7]: 2.74
SMILES: CCOC(=O)c1cc(OCC(F)F)nn1-c1ncccc1Cl [Ethyl 1-(3-chloropyridin-2-yl)-3-(2,2-difluoroethoxy)-1H-pyrazole-5-carboxylate]

- chromatographic logP [2, 7]: 1.02
SMILES: Cc1cc(C=O)cc(C(=O)O)c1N [IX-1, 2-Amino-5-formyl-3-methylbenzoic acid]

- chromatographic logP [2, 7]: 1.9
SMILES: COC(=O)c1cc(CF)nn1-c1ncccc1Cl [Methyl 1-(3-chloropyridin-2-yl)-3-(fluoromethyl)-1H-pyrazole-5-carboxylate]

- chromatographic logP [2, 7]: 1.73
SMILES: CO/N=C/c1cc(C)c(N)c(C(=O)O)c1 [VIII-1, 2-Amino-5-[(E)-(methoxyimino)methyl]-3-methylbenzoic acid]
